Data published in ChEMBL document CHEMBL6127057, “Design and synthesis of Thieno[3, 2-b]pyridinone derivatives exhibiting potent activities against Mycobacterium tuberculosis in vivo by targeting Enoyl-ACP reductase” (Eur J Med Chem, 2024).
≈ marks a conversion by molar mass, not a printed value. Calls of active or inactive are those of the source. The calls are words filed in the database; no cut-off is given here.

Tests used:
[1] = system: Cryptococcus neoformans; assay: Antifungal activity against Cryptococcus neoformans assessed as fungal growth inhibition incubated for 72 hrs; type: functional
[2] = system: Candida albicans; assay: Antifungal activity against Candida albicans assessed as fungal growth inhibition incubated for 48 hrs; type: functional
[3] = system: Mycobacterium tuberculosis; assay: Antimycobacterial activity against marker-free avirulent autoluminescent Mycobacterium tuberculosis H37Ra assessed as inhibition of relative light unit relative to control; type: functional
[4] = system: Staphylococcus aureus; assay: Antibacterial activity against Staphylococcus aureus assessed as bacterial growth inhibition incubated for 24 hrs; type: functional
[5] = system: L02; assay: Cytotoxicity against human L02 cells incubated for 48 hrs by CCK-8 assay; type: toxicity, cell-based; conditions: l02, 48 h
[6] = target: T1, Enoyl-[acyl-carrier-protein] reductase [NADH] (Mycobacterium tuberculosis) (UniProt P9WGR1); assay: Inhibition of C-terminal his-tagged Mycobacterium tuberculosis InhA extracted from Escherichia coli BL21(DE3) cells using trans-2-dodecenoyl-coenzyme A as substrate at 25 microM by UV based analysis
T1 sequence (whole entry): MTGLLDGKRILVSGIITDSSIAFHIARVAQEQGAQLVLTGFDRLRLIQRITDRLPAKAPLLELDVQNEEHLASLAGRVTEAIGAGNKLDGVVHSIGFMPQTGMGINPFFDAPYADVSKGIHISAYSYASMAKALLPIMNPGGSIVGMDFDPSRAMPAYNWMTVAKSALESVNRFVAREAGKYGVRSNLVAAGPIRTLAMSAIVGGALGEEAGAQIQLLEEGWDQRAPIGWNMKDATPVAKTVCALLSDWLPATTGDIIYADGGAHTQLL

[7] = system: Mycobacterium tuberculosis; assay: Antimycobacterial activity against Mycobacterium tuberculosis UAlRv infection model using mouse RAW264.7 cells assessed as inhibition of bacterial growth incubated for 72 hrs; type: functional
[8] = system: Escherichia coli; assay: Antibacterial activity against Escherichia coli assessed as bacterial growth inhibition incubated for 24 hrs; type: functional
[9] = system: Mycobacterium tuberculosis; assay: Antimycobacterial activity against Mycobacterium tuberculosis H37Rv assessed as inhibition of growth by kill kinetic analysis; type: functional
[10] = system: Mycobacterium tuberculosis; assay: Antimycobacterial activity against wild-type Mycobacterium tuberculosis H37Rv incubated for 4 weeks by MABA assay; type: functional; conditions: 672 h
[11] = system: Mycobacterium tuberculosis; assay: Antimycobacterial activity against Mycobacterium tuberculosis H37Rv infected in female BALB/c mouse assessed as reduction in relative light unit in spleen at 300 mg/kg, po administered once daily for 5 days; type: functional; conditions: time 5 day
[12] = Half life in male Sprague-Dawley rat at 1 mg/kg, iv measured upto 240 hrs by LC/MS/MS analysis; type: ADME, organism-based; conditions: in vivo
[13] = system: Mycobacterium tuberculosis; assay: Antimycobacterial activity against Mycobacterium tuberculosis H37Rv infected in female BALB/c mouse assessed as reduction in relative light unit in lung at 100 mg/kg, po in presence of Rifampicin administered once daily for 5 days; type: functional; conditions: time 5 day
[14] = system: Mycolicibacterium smegmatis; assay: Antimycobacterial activity against recombinant Mycobacterium smegmatis transfected with pMV261 assessed as inhibition of bacterial growth at 0.25 to 64 microg/ml incubated for 3 days; type: functional; conditions: 72 h, dose 0.25-64 µg/ml, time 3 day
[15] = Cmax in male Sprague-Dawley rat at 100 mg/kg, po measured upto 240 hrs by LC/MS/MS analysis; type: ADME, organism-based; conditions: in vivo
[16] = Oral bioavailability in male Sprague-Dawley rat at 100 mg/kg measured upto 240 hrs by LC/MS/MS analysis; type: ADME, organism-based; conditions: in vivo
[17] = system: Mycolicibacterium smegmatis; assay: Antimycobacterial activity against recombinant Mycobacterium smegmatis transfected with pMV261-Mtb InhA assessed as inhibition of bacterial growth at 0.25 to 64 microg/ml incubated for 3 days; type: functional; conditions: 72 h, dose 0.25-64 µg/ml, time 3 day
[18] = Tmax in male Sprague-Dawley rat at 100 mg/kg, po measured upto 240 hrs by LC/MS/MS analysis; type: ADME, organism-based; conditions: in vivo
[19] = system: Mycobacterium tuberculosis; assay: Antimycobacterial activity against Mycobacterium tuberculosis H37Rv infected in female BALB/c mouse assessed as reduction in relative light unit in lung at 100 mg/kg, po administered once daily for 5 days; type: functional; conditions: time 5 day
[20] = Half life in male Sprague-Dawley rat at 100 mg/kg, po measured upto 240 hrs by LC/MS/MS analysis; type: ADME, organism-based; conditions: in vivo
[21] = system: Mycobacterium tuberculosis; assay: Antimycobacterial activity against Mycobacterium tuberculosis H37Rv infected in female BALB/c mouse assessed as reduction in relative light unit in lung at 30 mg/kg, po in presence of Rifampicin administered once daily for 5 days; type: functional; conditions: time 5 day
[22] = AUC (0 to infinity) in male Sprague-Dawley rat at 1 mg/kg, iv measured upto 240 hrs by LC/MS/MS analysis; type: ADME, organism-based; conditions: in vivo
[23] = Toxicity in BALB/c mouse infected with Mycobacterium tuberculosis H37Rv assessed as optimal condition at 300 mg/kg, po administered once daily for 5 days; type: organism-based; conditions: in vivo, 120 h, time 5 day
[24] = system: Mycobacterium tuberculosis; assay: Antimycobacterial activity against Mycobacterium tuberculosis H37Rv infected in female BALB/c mouse assessed as reduction in relative light unit in lung, po administered once daily for 5 days; type: functional, organism-based; conditions: dose 30-300 mg/kg, time 5.0 day
[25] = system: Mycobacterium tuberculosis; assay: Antimycobacterial activity against Mycobacterium tuberculosis H37Rv infected in female BALB/c mouse assessed as reduction in relative light unit in lung at 300 mg/kg, po administered once daily for 5 days; type: functional; conditions: time 5 day
[26] = system: Mycolicibacterium smegmatis; assay: Selectivity ratio of MIC for recombinant Mycobacterium smegmatis transfected with pMV261-Mtb InhA to MIC for recombinant Mycobacterium smegmatis transfected with pMV261; type: functional
[27] = AUC (0 to infinity) in male Sprague-Dawley rat at 100 mg/kg, po measured upto 240 hrs by LC/MS/MS analysis; type: ADME, organism-based; conditions: in vivo

## C[C@@H]1[C@H](O)[C@@H](C)/C=C/C=C/C=C/C=C/C=C/C=C/C=C/[C@H](O[C@@H]2O[C@H](C)[C@@H](O)[C@H](N)[C@@H]2O)C[C@@H]2O[C@](O)(C[C@@H](O)C[C@@H](O)[C@H](O)CC[C@@H](O)C[C@@H](O)CC(=O)O[C@H]1C)C[C@H](O)[C@H]2C(=O)O [AMPHOTERICIN B]
[1]
  MIC80: 0.5 µg/mL (≈ 0.541 µM)
[2]
  MIC80: 0.125 µg/mL (≈ 0.135 µM)

## O=c1[nH]c2c(Br)csc2c(O)c1-c1ccco1
[3]
  MIC90: 8 µg/mL (≈ 25.6 µM)

## O=c1[nH]c2c(Br)csc2c(O)c1-c1cccc(Cl)c1
[4]
  MIC99: > 64 µg/mL
[5]
  Activity: Toxic
[6]
  inhibition: Active
[7]
  MIC90: 1 µg/mL (≈ 2.8 µM)
[8]
  MIC99: > 64 µg/mL
[3]
  MIC90: 0.5 µg/mL (≈ 1.4 µM)

## Cc1ccc(C)c(-c2c(O)c3scc(Br)c3[nH]c2=O)c1
[3]
  MIC90: 32 µg/mL (≈ 91.4 µM)

## Cc1ccccc1-c1c(O)c2scc(Br)c2[nH]c1=O
[1]
  MIC80: > 64 µg/mL
[4]
  MIC99: > 64 µg/mL
[8]
  MIC99: > 64 µg/mL
[3]
  MIC90: 0.5 µg/mL (≈ 1.49 µM)
[2]
  MIC80: > 64 µg/mL

## O=c1[nH]c2c(Br)csc2c(O)c1-c1ccc(Cl)cc1Cl
[3]
  MIC90: > 64 µg/mL

## CC1(C)S[C@@H]2[C@H](NC(=O)[C@H](N)c3ccc(O)cc3)C(=O)N2[C@H]1C(=O)O [AMOXICILLIN]
[4]
  MIC99: 0.5 µg/mL (≈ 1.37 µM)
[8]
  MIC99: 0.05 µg/mL (≈ 0.137 µM)

## Cc1csc2c(O)c(-c3ccccc3)c(=O)[nH]c12
[3]
  MIC90: 4 µg/mL (≈ 15.5 µM)

## O=c1[nH]c2c(Br)csc2c(O)c1-c1ccc(C(F)(F)F)cc1
[3]
  MIC90: 16 µg/mL (≈ 41 µM)

## CC(C)(C)c1ccc(-c2c(O)c3scc(Br)c3[nH]c2=O)cc1
[3]
  MIC90: > 64 µg/mL

## Cc1ccc(-c2c(O)c3scc(Br)c3[nH]c2=O)cc1
[3]
  MIC90: 32 µg/mL (≈ 95.2 µM)

## O=c1[nH]c2c(Br)csc2c(O)c1-c1cccc(Br)c1
[3]
  MIC90: 16 µg/mL (≈ 39.9 µM)

## CC1(C)CCC(Cc2cc(O)c(-c3ccccc3)c(=O)[nH]2)CC1
[9]
  MIC50: 0.05 µM (≈ 0.0156 µg/mL)

## COc1cccc(-c2c(O)c3scc(Br)c3[nH]c2=O)c1
[3]
  MIC90: 8 µg/mL (≈ 22.7 µM)

## CC(=O)Oc1c(-c2ccccc2)c(=O)n(C(C)=O)c2c(Br)csc12
[3]
  MIC90: 4 µg/mL (≈ 9.85 µM)

## O=c1[nH]c2c(Br)csc2c(O)c1-c1cccs1
[3]
  MIC90: 4 µg/mL (≈ 12.2 µM)

## O=c1[nH]c2c(Br)csc2c(O)c1-c1cccc(Oc2ccccc2)c1
[3]
  MIC90: 32 µg/mL (≈ 77.2 µM)

## O=c1[nH]c2c(Br)csc2c(O)c1-c1ccc(Cl)cc1F
[3]
  MIC90: 16 µg/mL (≈ 42.7 µM)

## O=c1[nH]c2c(Br)csc2c(O)c1-c1cccc([N+](=O)[O-])c1
[3]
  MIC90: > 64 µg/mL

## O=c1[nH]c2c(Br)csc2c(O)c1-c1ccc2ccccc2c1
[3]
  MIC90: 16 µg/mL (≈ 43 µM)

## CO[C@H]1/C=C/O[C@@]2(C)Oc3c(C)c(O)c4c(O)c(c(/C=N/N5CCN(C)CC5)c(O)c4c3C2=O)NC(=O)/C(C)=C\C=C\[C@H](C)[C@H](O)[C@@H](C)[C@@H](O)[C@@H](C)[C@H](OC(C)=O)[C@@H]1C [RIFAMPIN]
[10]
  MIC: 0.125 µg/mL (≈ 0.152 µM)
[3]
  MIC90: 0.25 µg/mL (≈ 0.304 µM)

## COc1ccc(-c2c(O)c3scc(Br)c3[nH]c2=O)cc1
[3]
  MIC90: 16 µg/mL (≈ 45.4 µM)

## O=c1[nH]c2c(Br)csc2c(O)c1-c1cccc(F)c1
[1]
  MIC80: > 64 µg/mL
[4]
  MIC99: > 64 µg/mL
[8]
  MIC99: > 64 µg/mL
[3]
  MIC90: 0.5 µg/mL (≈ 1.47 µM)
[2]
  MIC80: > 64 µg/mL

## O=c1[nH]c2c(Br)csc2c(O)c1-c1ccc(Cl)cc1
[3]
  MIC90: > 64 µg/mL

## O=c1[nH]c2c(Br)csc2c(O)c1-c1ccccc1F
[1]
  MIC80: > 64 µg/mL
[4]
  MIC99: > 64 µg/mL
[8]
  MIC99: > 64 µg/mL
[3]
  MIC90: 0.5 µg/mL (≈ 1.47 µM)
[2]
  MIC80: > 64 µg/mL

## O=c1[nH]c2c(Br)csc2c(O)c1-c1ccccc1
[4]
  MIC99: > 64 µg/mL
[8]
  MIC99: > 64 µg/mL
[3]
  MIC90: 0.5 µg/mL (≈ 1.55 µM)

## O=c1[nH]c2c(Br)csc2c(O)c1-c1ccc(Br)cc1
[3]
  MIC90: 16 µg/mL (≈ 39.9 µM)

## N#Cc1cccc(-c2c(O)c3scc(Br)c3[nH]c2=O)c1
[3]
  MIC90: > 64 µg/mL

## O=c1[nH]c2c(Br)csc2c(O)c1-c1ccccc1Cl
[3]
  MIC90: 1 µg/mL (≈ 2.8 µM)

## O=c1[nH]c2c(Br)csc2c(O)c1-c1ccc(F)cc1
[3]
  MIC90: 2 µg/mL (≈ 5.88 µM)

## Cc1cccc(-c2c(O)c3scc(Br)c3[nH]c2=O)c1
[11]
  Activity: 0.37 log10RLU
[12]
  half-life: 35.6 h
[13]
  Activity: 5.31 log10RLU
[1]
  MIC80: > 64 µg/mL
[4]
  MIC99: > 64 µg/mL
[14]
  MIC: 1 µg/mL
[15]
  Cmax: 283 µM
[16]
  bioavailability: 16.4%
[5]
  Activity: Toxic
[10]
  MIC: 0.5 µg/mL (≈ 1.49 µM)
[17]
  MIC: 4 µg/mL
[18]
  Tmax: 6 h
[6]
  inhibition: Active
[19]
  Activity: 4.93 log10RLU
[20]
  half-life: 48 h
[21]
  Activity: 0.29 log10RLU
[7]
  MIC90: 1 µg/mL (≈ 2.97 µM)
[8]
  MIC99: > 64 µg/mL
[22]
  AUC: 1200 µM·h
[23]
  Activity: Non-Toxic
[24]
  Activity: Dose-Dependent Effect
[3]
  MIC90: 0.5 µg/mL (≈ 1.49 µM)
[25]
  Activity: 0.64 log10RLU
[26]
  Selectivity ratio: 2
[2]
  MIC80: > 64 µg/mL
[27]
  AUC: 19700 µM·h

## NNC(=O)c1ccncc1 [ISONIAZID]
[9]
  MIC50: 0.33 µM (≈ 0.0453 µg/mL)
[10]
  MIC: 0.03 µg/mL (≈ 0.219 µM)

## N#Cc1ccc(-c2c(O)c3scc(Br)c3[nH]c2=O)cc1
[3]
  MIC90: 32 µg/mL (≈ 92.2 µM)

## O=c1[nH]c2c(Br)csc2c(O)c1-c1cccc(OC(F)(F)F)c1
[3]
  MIC90: > 64 µg/mL

## O=c1[nH]c2c(Br)csc2c(O)c1-c1ccc([N+](=O)[O-])cc1
[3]
  MIC90: 32 µg/mL (≈ 87.2 µM)
